In paper PMC11187542, “Identification of fragments targeting SMYD3 using highly sensitive kinetic and multiplexed biosensor-based screening” (RSC Medicinal Chemistry, 2024):

How the values were obtained:
SMYD3 (apo, native) = target: T1, SMYD3 (apo, native) (Homo sapiens, UniProt Q9H7B4); test: GCI biosensor kinetic screening, apo SMYD3 surface; format: binding; conditions: for LE (ligand efficiency): LE = −RT ln(KD)/n; for Kd / kd / kon at 250 µM: initial kinetic screening, fragment 250 μM, 15 °C; for kd / kon at 250 µM: 1:1 model; for kon at 250 µM: read-out: ka
T1 construct: Full length recombinant SMYD3 was produced as previously reported; made in house; host or cells: E. coli BL21(DE3), in some cases Rosetta 2
T1 sequence (Q9H7B4 1-428): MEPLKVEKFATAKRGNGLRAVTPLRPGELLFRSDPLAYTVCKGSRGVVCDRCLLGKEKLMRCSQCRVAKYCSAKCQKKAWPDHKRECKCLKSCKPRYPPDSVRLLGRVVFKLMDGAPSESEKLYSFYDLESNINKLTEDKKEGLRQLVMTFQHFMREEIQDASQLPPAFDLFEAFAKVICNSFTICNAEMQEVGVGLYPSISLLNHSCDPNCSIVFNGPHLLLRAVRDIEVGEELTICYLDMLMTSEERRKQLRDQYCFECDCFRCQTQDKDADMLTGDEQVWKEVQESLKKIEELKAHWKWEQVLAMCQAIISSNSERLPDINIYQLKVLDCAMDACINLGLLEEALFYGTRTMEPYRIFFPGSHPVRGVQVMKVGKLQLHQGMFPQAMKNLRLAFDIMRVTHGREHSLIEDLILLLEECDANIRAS
Text: (§1) A multiplexed screening assay was set up with three different SMYD3 surfaces and a blank reference surface in flow channels 1–4 (FC1–FC4) (Fig. 2a), as described previously.[5] The apo SMYD3 surface detected fragments interacting anywhere on SMYD3, while a SMYD3 surface blocked by active site-specific tight-binding inhibitor EPZ031686 detected compounds binding elsewhere. The denatured surface served as a reference, detecting fragments binding to unfolded proteins, also potentially present to a significant degree in the other two surfaces.
After preparing the sensor surface and immobilising SMYD3, the functionality of the surface was assessed via analysis of interactions with the co-factor product S-adenosyl-homocysteine (SAH). It was used as a control in all experiments, confirming that sensor surfaces were intact. This was done using the novel multiple injection-based experimental design (Fig. 1) at 25 μM, i.e. in a weak binder mode (Fig. 2b).
(§2) The library was screened using the approach described in Fig. 1, i.e. injection of fragments at 250 μM for increasing durations of time in a single cycle, using a flow rate of 100 μL min^−1, data acquisition set to 40 Hz and with an association time of 5 s and dissociation of 20 s. Each fragment was addressed to all four channels and interactions with the native and blocked surfaces compared. The experimental conditions were chosen to ensure that the assay could reliably characterize the fast and transient interactions expected from typical fragments.
(§3) The kinetic screening of 1056 compounds was successfully completed in 72 hours. […] Hits were identified with full kinetic information using dissociation phases.
(§4) All interaction kinetic experiments were conducted with a GCI–flow-based biosensor (WAVEdelta, Creoptix AG/Malvern Panalytical) and PCH WAVEchip (Creoptix AG/Malvern Panalytical) sensor chips. The sensor chips were conditioned using injections of borate buffer (10 mM sodium tetraborate pH 8.5, 1 M NaCl). The running buffer composition, if not otherwise stated, was TBS buffer (50 mM Tris, 150 mM NaCl, 0.5 mM TCEP, 0.05% Tween 20, 1% DMSO, pH 8). SMYD3 was diluted to the desired concentration in 10 mM bis-Tris (pH 7.0) and amine coupled to the sensor surface of the PCH sensor chip. The sensor chip was functionalized at 25 °C by immobilising SMYD3 with EDC and NHS (Xantec) using an injection time of 420 s and a flow rate of 10 μL min^−1. The immobilisation levels ranged from 5000 pg mm^−2 to 18 500 pg mm^−2 surface mass to enable analysis of fragments spanning a broad range of affinities. After immobilization, the surface was deactivated with a running buffer containing 50 mM Tris for 420 s. The GCI data referencing and analysis were performed using WAVEcontrol V4.5 (Creoptix AG).
(§5) Kinetic measurements with controls and fragments were performed at 15 °C. Analysis of controls and follow up of hits was done using the multi cycle kinetic (MCK) injection of a concentration series for the same time, with a two-fold serial dilution starting at 250 μM for each compound. Solvent correction was performed ranging from 0.5–1.8% DMSO. Blank samples of the running buffer, 1× TBS (50 mM Tris, 150 mM NaCl, 0.5 mM TCEP, 0.05% Tween 20, 1% DMSO, pH 8), were injected during the measurements every fifth cycle. The experimental design illustrated in Fig. 1 was used for the screening against all four surfaces. The sensorgrams were adjusted to account for solvent correction and blank subtraction. Kinetic fitting was performed with the Direct Kinetics engine of WAVEcontrol software V4.5 (Creoptix AG) with a suitable fitting model.

SMYD3 [1] = target: T2, SMYD3 (Homo sapiens, UniProt Q9H7B4); test: X-ray crystallography of SMYD3-fragment complexes (co-crystallization and soaking); set-up: key to XRC: success or failure of crystallization in complex with SMYD3: The success (+) or failure (−) of crystallization in complex with SMYD3; The success (+) or failure (−) of crystallization in complex with SMYD3; conditions: 5 mM fragment co-crystallization or soaking
T2 construct: Full length recombinant SMYD3 was produced as previously reported; made in house; host or cells: E. coli BL21(DE3), in some cases Rosetta 2
T2 sequence (Q9H7B4 1-428): T1 sequence (Q9H7B4 1-428)
Text: To identify binding sites and binding modes, the fragment hits (Table 1) were used in both co-crystallization and soaking experiments to obtain SMYD3-fragment co-crystals for X-ray crystallographic analyses. Diffraction data of 1.6–1.9 Å maximum resolution were obtained for four fragments (Fig. 5). For data collection and refinement statistics, see ESI, ^† Table S1.
Four new sites were thus identified.
Polder (F0–Fc) maps (Fig. 5, right) were generated to establish whether the observed electron density features were more likely to represent background noise or to belong to bound fragments. These omit maps are generated upon exclusion of the ligand and surrounding solvent from the model, which aids in visualizing weak densities. […] For fragments FL01507, FL08580 and FL08619, a comparison of the maps obtained after refinement with a bound fragment with maps obtained upon their replacement with either glycerol or acetate, which were present in the crystallization or cryo-protectant solutions, respectively, was required.
8 mg mL^−1 of SMYD3 in storage buffer (TBS buffer containing 2 mM DTT) was pre-incubated for 4–8 hours with 5 mM of a respective fragment hit compound and 10% (v/v) DMSO. Subsequently, 1 μL of this solution was mixed with an equal volume of reservoir solution (100 mM Tris, 100 mM magnesium acetate, 15–17% PEG3350, pH 8.25–8.75) to create the drops for co-crystallization by hanging drop vapour diffusion performed at 20 °C. Needle-like co-crystals nucleated within 12 h of equilibration against the reservoir. In addition, crystals of SMYD3 obtained in ligand-free crystallization setups were soaked with fragment solution prior to freezing. All crystals were cryo-protected via brief immersion in reservoir solution supplemented with 10% (v/v) glycerol.
Diffraction data were collected at beamline ID23-1 of the European Synchrotron Radiation Facility (ESRF, Grenoble, France). Data were indexed, auto-processed, scaled and merged on-site using the implemented data processing routines and software. Fragment-associated electron density features were identified upon data analysis with the Pipedream system (version 1.4.0, Global Phasing Ltd, Cambridge, United Kingdom), which includes data processing with autoPROC,[14] molecular replacement with Phaser,[15] structure refinement with BUSTER version 2.10.4 (Global Phasing Ltd, Cambridge, United Kingdom), automated ligand fitting with Rhofit (Global Phasing Ltd, Cambridge, United Kingdom) and BUSTER post-refinement.[16] Refinement was done with Phenix,[17] and model building with Coot.[18] (F0–Fc) difference density maps for models, from which ligand atoms and surrounding water molecules were removed, were generated using Phenix.

SMYD3 [2] = target: T2, SMYD3; test: GCI biosensor multi cycle kinetic confirmation of hits; format: binding; conditions: two-fold serial dilution starting at 250 μM, 15 °C, global fit 1:1 model
Experimental: Selected screening hits were also re-tested by conventional multi cycle kinetic analysis in order to confirm the interactions (some compounds were no longer available). Two variants of the GCI biosensor assay were set up, using different immobilisation levels, to allow the confirmation of hits over a broad range of affinities. […] The kinetics varied for the selected hits (ESI, ^† Fig. S2). All hits were not confirmed (ESI, ^† Fig. S1b).
as §4, §5
FL06268 Superstoichiometric and
Figure 1. Examples of sensorgrams from multicycle kinetic experiments with initial fragment hits and SMYD3. A)
Fragments for which crystal structures of the complex with SMYD3 were obtained. A global fit of the sensorgrams
crystal structures were not obtained. […]

[3] = target: T3, SMYD3 in complex with active site-specific tight-binding inhibitor EPZ031686 (Homo sapiens, UniProt Q9H7B4); test: GCI biosensor kinetic screening, active site blocked SMYD3 surface; conditions: for LE (ligand efficiency): LE = −RT ln(KD)/n, blocked SMYD3 surface; for Kd / kd / kon at 250 µM: initial kinetic screening, fragment 250 μM, 15 °C; for Kd: SMYD3 blocked by EPZ031686; for kd / kon at 250 µM: SMYD3 blocked by EPZ031686, 1:1 model; for kon at 250 µM: read-out: ka
T3 construct: Full length recombinant SMYD3 was produced as previously reported; made in house; host or cells: E. coli BL21(DE3), in some cases Rosetta 2
T3 sequence (Q9H7B4 1-428): T1 sequence (Q9H7B4 1-428)
Text: as §1, §2, §3, §4, §5

LE (ligand efficiency) (SMYD3 (apo, native)) | Kd (SMYD3 (apo, native)) [µM] | kd (SMYD3 (apo, native)) [s⁻¹] | kon at 250 µM (SMYD3 (apo, native)) [M⁻¹ s⁻¹] | XRC: success or failure of crystallization in complex with SMYD3 (SMYD3 [1]) | Outcome of multicycle kinetic experiment (sensorgram assessment) (SMYD3 [2]) | LE (ligand efficiency) [3] | Kd [3] [µM] | kd [3] [s⁻¹] | kon at 250 µM [3] [M⁻¹ s⁻¹] | SMILES
0.72 (kcal^-1 mol^-1)/HA | 17.9 | 1.3 | 72000 | (+) | Complex interaction |  |  |  |  | N#Cc1cccc(O)c1 [FL01507]
 |  |  |  | (−) |  | 0.53 (kcal^-1 mol^-1)/HA | 56 | 1.09 | 19400 | Oc1ccc2ccncc2c1 [FL01657]
0.35 (kcal^-1 mol^-1)/HA | 44.4 | 0.96 | 21600 | (−) | No binding |  |  |  |  | O=c1cc(C(F)(F)F)c2cc(Cl)c(O)cc2o1 [FL01677]
 |  |  |  | (−) |  | 0.48 (kcal^-1 mol^-1)/HA | 56 | 1.37 | 24400 | O=C(O)c1cc(Br)c(O)c(Br)c1 [FL01775]
 |  |  |  | (+) |  | 0.67 (kcal^-1 mol^-1)/HA | 37 | 1.46 | 39100 | CC(C)c1nsc(N)n1 [FL01791]
 |  |  |  | (−) |  | 0.31 (kcal^-1 mol^-1)/HA | 149 | 1.46 | 9780 | COc1ccc(-n2ncc(C(=O)O)c2C)cc1 [FL01833]
0.52 (kcal^-1 mol^-1)/HA | 27.4 | 0.70 | 25900 | (−) |  |  |  |  |  | Nc1nc2cccnc2cc1Br [FL01891]
 |  |  |  | (−) |  | 0.53 (kcal^-1 mol^-1)/HA | 124 | 1.61 | 13000 | COc1ccc(Br)cc1N [FL01938]
0.50 (kcal^-1 mol^-1)/HA | 17.4 | 1.09 | 62700 | (−) |  |  |  |  |  | O=C(O)c1ccnc2ccccc12 [FL02261]
0.35 (kcal^-1 mol^-1)/HA | 38 | 1.61 | 42200 | (−) |  |  |  |  |  | COc1ccccc1C1OC(=O)CC1C(=O)O (stereo not shown) [FL03512]
0.70 (kcal^-1 mol^-1)/HA | 7.84 | 0.93 | 118000 | (−) |  |  |  |  |  | NC(=O)c1cccc(O)c1 [FL08580]
 |  |  |  | (−) |  | 0.51 (kcal^-1 mol^-1)/HA | 5.6 | 0.42 | 75200 | O=S(=O)(c1ccccc1)C1CCNC1 (stereo not shown) [FL08644]
 |  |  |  | (−) |  | 0.32 (kcal^-1 mol^-1)/HA | 60 | 2.01 | 33300 | CC(C)(C)OC(=O)NC1CCC(CC(=O)O)CC1 (stereo not shown) [FL08758]
 |  |  |  | (−) |  | 0.48 (kcal^-1 mol^-1)/HA | 25 | 1.07 | 41900 | Nc1ccnc(-c2cccnc2)n1 [FL08779]
0.49 (kcal^-1 mol^-1)/HA | 51.3 | 2.04 | 39700 | (−) |  |  |  |  |  | Nc1nnc(-c2cccnc2)s1 [FL08795]

SMILES | LE (ligand efficiency) (SMYD3 (apo, native)) | Kd (SMYD3 (apo, native)) [µM] | kd (SMYD3 (apo, native)) [s⁻¹] | kon at 250 µM (SMYD3 (apo, native)) [M⁻¹ s⁻¹] | XRC: success or failure of crystallization in complex with SMYD3 (SMYD3 [1]) | Outcome of multicycle kinetic experiment (sensorgram assessment) (SMYD3 [2]) | LE (ligand efficiency) [3] | Kd [3] [µM] | kd [3] [s⁻¹] | kon at 250 µM [3] [M⁻¹ s⁻¹]
N#Cc1cc(Br)ccc1O [FL01750] | 0.61 (kcal^-1 mol^-1)/HA | 31.6 | 0.93 | 29500 | (−) | No binding |  |  |  | 
Nc1ccc(S(N)(=O)=O)cc1 [FL04272] | 0.66 (kcal^-1 mol^-1)/HA | 4.4 | 0.68 | 150000 | (−) |  |  |  |  | 
